The source made the active and inactive calls. No cut-off for these calls is given here.
Assays:
HCT-116 = test: Cytotoxicity against human HCT116 cells after 7 days by methylene blue staining; format: functional, cell-based
[1] = system: Trypanosoma brucei brucei; test: Antitrypanosomal activity against Trypanosoma brucei brucei 221 after 48 hrs by ATP-bioluminescence assay; format: functional, organism-based; settings: for IC50: Trypanosoma brucei, 221, 48 h

Row | SMILES | Activity [1] | Activity (HCT-116) | other results
1 | O=C1N/C=C/c2ccc(c(Br)c2)Oc2cc(cc(Br)c2O)CCNC(=O)/C(=N/O)Cc2cc(Br)c(c(Br)c2)Oc2cc(cc(Br)c2O)C/C1=N\O [BASTADIN 4] | inactive | – | IC50 (HCT-116; HCT-116, 168 h): 1.28 µM
2 | O=C(NCCc1ccc(O)c(Br)c1)/C(Cc1cc(Br)c2c(c1)-c1cc(C/C(=N\O)C(=O)NCCc3ccc(O)c(Br)c3)cc(Br)c1OCO2)=N\O | – | inactive | –
3 | O=C1NCCc2cc(Br)c(O)c(c2)Oc2ccc(cc2Br)CCNC(=O)/C(=N\O)Cc2cc(Br)c(O)c(c2)Oc2c(Br)cc(cc2Br)C/C1=N/O | inactive | inactive | –
4 | O=C1NCCc2cc(Br)c(O)c(c2)Oc2ccc(cc2)CCNC(=O)/C(=N/O)Cc2cc(Br)c(O)c(c2)Oc2c(Br)cc(cc2Br)C/C1=N\O | inactive | – | –
5 | O=C1NCCc2ccc(c(Br)c2)Oc2cc(cc(Br)c2O)CCNC(=O)/C(=N/O)Cc2cc(Br)c(O)c(c2)Oc2c(Br)cc(cc2Br)C/C1=N\O [BASTADIN 19] | – | inactive | IC50 [1]: 1.31 µM
6 | O=C(NCCc1ccc(O)c(Br)c1)/C(Cc1cc(Br)c(O)c(-c2cc(C/C(=N/O)C(=O)NCCc3ccc(O)c(Br)c3)cc(Br)c2O)c1)=N\O | – | inactive | –
7 | O=C1NCCc2ccc(c(Br)c2)Oc2cc(ccc2O)CCNC(=O)/C(=N/O)Cc2cc(Br)c(O)c(c2)Oc2c(Br)cc(cc2Br)C/C1=N\O [BASTADIN 13] | – | – | IC50 [1]: 1.77 µM
8 | O=C1NCCc2cc(Br)c(O)c(c2)Oc2c(Br)cc(cc2Br)CCNC(=O)/C(=N/O)Cc2cc(Br)c(O)c(c2)Oc2c(Br)cc(cc2Br)C/C1=N\O | inactive | inactive | –
9 | O=C1NCCc2ccc(c(Br)c2)Oc2cc(cc(Br)c2O)CCNC(=O)/C(=N/O)Cc2cc(Br)c(O)c(c2)Oc2c(Br)cc(cc2Br)C/C1=N/O | – | inactive | –
10 | O=C1N/C=C/c2ccc(c(Br)c2)Oc2cc(cc(Br)c2O)CCNC(=O)/C(=N/O)Cc2ccc(c(Br)c2)Oc2cc(cc(Br)c2O)C/C1=N\O | inactive | – | –
11 | O=C1NCCc2cc(Br)c(O)c(c2)Oc2ccc(cc2Br)[C@H](O)CNC(=O)/C(=N/O)Cc2cc(Br)c(O)c(c2)Oc2c(Br)cc(cc2Br)C/C1=N\O | inactive | – | –
12 | O=C(NCCc1ccc(O)c(Br)c1)/C(Cc1cc(Br)c(O)c(Oc2c(Br)cc(C/C(=N\O)C(=O)NCCc3ccc(O)c(Br)c3)cc2Br)c1)=N\O | inactive | – | –

Reference: ChEMBL document CHEMBL1154906, “Additional insights on the bastadins: isolation of analogues from the sponge Ianthella cf. reticulata and exploration of the oxime configurations” (J Nat Prod, 2010)
